From publication PMC8838787, “The Antiproliferative and Apoptotic Effects of a Novel Quinazoline Carrying Substituted-Sulfonamides: In Vitro and Molecular Docking Study” (Molecules, 2022)

Experiments:
A549 (lung) cancer cells = experiment: MTT cell viability assay, A549; format: cell-based; details: average ± SD (n = 3)
Protocol: (§1) Compounds 4a–n were subjected to the cytotoxicity screening of the cell lines MCF-7 (breast), LoVo (colon), HepG2 (liver) and A549 (lung) carcinoma cells as well as HUVEC normal cell lines. The MTT assay was employed to assess cytotoxicity after 48 h of treatment with different concentrations of each compound and doxorubicin was used as a reference drug. The results were presented in Table 1 as growth inhibitory concentration (IC50 values).
(§2) Cell viability was determined using 3-(4,5-dimethylthiazol-2-yl)-2,5-diphenyl tetrazolium bromide (MTT) assay as stated previously. In brief, A549 (lung), HepG2 (liver), LoVo (colon), MCF-7 (breast) cancer cells as well as normal cells (HUVEC) were seeded in 96-well plates (10^5 per well) and compounds were added in a different final concentration. All cells were treated for 48 h, and then 10μL of MTT reagent (5 mg/mL) was added to each well and further incubated for 4 h. Thereafter, 0.1 mL of acidified isopropanol was added to solubilize formazan product and the developed color was measured at 570 nm in Microplate ELISA Reader (BioTek, Elx-800, Winooski, VT, USA). The IC50 values (concentration required for 50% inhibition of cell viability) were calculated using dose response curve. Cell viability was calculated as = (Ab Treated/Ab Control) × 100.
(§3) The A549, HepG2, LoVo and MCF-7 cancer cell lines were obtained from the German Collection of Microorganisms and Cell Cultures (DSMZ) (Braunschweig, Germany). For Human umbilical vein endothelial cells (HUVEC cells), it was purchased from American Type Culture Collection (16549; Cat no. PCS-100-010; ATTCC, Manassas, VA, USA).

[1] = test system: MCF-7 (breast) cancer cells; experiment: MTT cell viability assay, MCF-7; format: cell-based, human; details: Homo sapiens, MCF7, 48 h, average ± SD (n = 3)
Protocol: as §1, §2, §3

caspase 7 = experiment: Western blot, caspase 7 protein; format: cell-based, human; details: 24 h, in comparison to the control
Description: (§4) We next used reverse transcription polymerase chain reaction (RT-PCR) and Western blot analysis to look at Bax (proapoptotic), Bcl-2 (antiapoptotic) and caspase 7 (executioner caspase) expression at gene and protein level as an additional marker of apoptosis occurrence. In fact, apoptotic cell death is mostly directed by the levels of Bcl-2 family, whether they are pro-apoptotic or antiapoptotic and targeting these molecules as a therapeutic strategy is continuously under development. As predicted, we observed an upregulation in the expression of Bax in MCF-7 treated cells to (1.7-, 2- and 2.4-fold) with compound 4d and to (1.2-, 1.4- and 1.6-fold) with compound 4f at (1.25, 2.5 and 5 µM) respectively (Figure 6). […] This shifting in Bax to Bcl-2 ratio usually started caspases activation which plays a critical role in apoptosis execution. Among all caspases, caspase 7 is considered as one of the most crucial executioner caspases that mediate cell death, and its expression strongly correlates with apoptosis stimulation.
MCF-7 cells were plated in six well plates at the density of 0.5 × 10^6 and kept for adherence for overnight. On the next day, complete media was replaced with the fresh one and treated the cells with compounds 4d and 4f for 24 h at various concentrations. After 24 h of treatment, cells were harvested and washed twice with 1× PBS before adding the lysis buffer (20 mM Tris pH 7.5, 150 mM Nacl, 1 mM Na2EDTA, 1 mM EGTA, 1% Triton X100, 1 μg/mL Leupeptin and 100 µM phenylmethylsulfonyl fluoride—PMSF) and kept it for 1 h on ice, with intermittent vortex mixing every 10 min. The samples were centrifuged at 13,000 rpm at 4 °C for 15 min and then the supernatants were transferred into new tubes. Total protein was measured by using Bio-Rad Bradford kit and then 35 µg of the total protein was run on a 12% SDS-PAGE and transferred to a nitrocellulose membrane. The membrane was blocked with 5% BSA in TBST (150 mM Nacl, 20 mM Tris base and 0.1% Tween 20) for 2 h at room temperature and then washed three times with TBST buffer. Then the membrane was incubated with the desired antibodies (p53, Bcl-2, Bax, caspase7 and β-actin) (1:200, Santa Cruz Biotecnology, Inc., Dallas, TX, USA) and kept on a rocker at 4 °C overnight. On the next day, the membrane was washed three times with TBST buffer and then incubated with horseradish peroxidase-conjugated secondary antibody (1:3000) for 1 h at room temperature. After incubation, membranes were washed three times with TBST buffer and then were ready for immunodetection. For immunodetection, membranes were incubated with ECL Western blotting detecting reagents (Amersaham Pharmacia Biotech Inc., Zurich, Switzerland) and then bands were obtained by exposing to X-ray films (Amersham).

Bax [2] = experiment: Western blot, Bax protein; format: cell-based, human; details: MCF-7, 1.25, 2.5 and 5 μM, 24 h, vs control cells
Description: as §4, with “Among all caspases, caspase 7 is considered as one of the most crucial executioner caspases that mediate cell death, and its expression strongly correlates with apoptosis stimulation.” left out
(§5) MCF-7 cells were plated in six well plates at the density of 0.5 × 10^6 and kept for adherence for overnight. […] Total protein was measured by using Bio-Rad Bradford kit and then 35 µg of the total protein was run on a 12% SDS-PAGE and transferred to a nitrocellulose membrane. […] After incubation, membranes were washed three times with TBST buffer and then were ready for immunodetection. […]

Bax [3] = experiment: RT-PCR of apoptotic genes, Bax; format: cell-based, human; details: 24 h, vs control, normalized to β-actin
Description: as §4
The MCF-7 cells (0.1 × 10^6) in 12 well plates were treated with different concentrations of compounds 4d and 4f for 24 h and untreated cells were used as a control. After 24 h of treatment, cell culture media was removed and the cells were lysed with Trizol (Invitrogen, Waltham, MA, USA), and total RNA was extracted from all the samples [42]. The RNA was estimated by Nano-drop and 1 µg of RNA was used in the cDNA synthesis. The cDNA was synthesized from RNA by using a cDNA synthesis kit (Invitrogen, Thermo Fisher Scientific, lnc., Waltham, MA, USA) according to the manufacturer’s instruction. After Reverse transcription at 42 °C for 60 min, RT-PCR was performed using 5× Firepol Master Mix ready to load (Solis BioDyne) according to manufacturer’s instruction. RT-PCR was used to analyze the gene expression level of P53, Bcl2, Bax and caspase 7 using specific sets of primers for each gene, while β-actin was utilized as a housekeeping gene. The program was run as follows, initial denaturation at 95 °C for 5 min; denaturation at 95 °C for 30 s; annealing at 55 °C for 45 s; elongation at 72 °C for 45 s (30 Cycles) and final extension at 72 °C for 10 min. The RT-PCR products were electrophoresed on a 1.2% agarose gel containing ethidium bromide and the gel was imaged on a Licor machine.

HUVEC normal cells = experiment: MTT cell viability assay, normal HUVEC; format: cell-based; details: Homo sapiens, 48 h, average ± SD (n = 3)
Protocol: as §1, §2, §3

[4] = test system: HepG2 (liver) cancer cells; experiment: MTT cell viability assay, HepG2; format: cell-based; details: Homo sapiens, 48 h, average ± SD (n = 3)
Protocol: as §1, §2, §3

[5] = test system: LoVo (colon) cancer cells; experiment: MTT cell viability assay, LoVo; format: cell-based; details: Homo sapiens, 48 h, average ± SD (n = 3)
Protocol: as §1, §2, §3

Bcl-2 = experiment: Western blot, Bcl-2 protein; format: cell-based, human; details: MCF-7, 1.25, 2.5 and 5 μM, 24 h, vs control cells
Description: as §4, with “Among all caspases, caspase 7 is considered as one of the most crucial executioner caspases that mediate cell death, and its expression strongly correlates with apoptosis stimulation.” left out
as §5

SMILES	IC50 (A549 (lung) cancer cells; 48 h) [µM]	IC50 (A549 (lung) cancer cells; Homo sapiens, A549, 48 h) [µM]	IC50 [1] [µM]	caspase 7 protein expression (Western blot) (caspase 7; MCF-7, 1.25 μM) [fold]	caspase 7 protein expression (Western blot) (caspase 7; MCF-7, 2.5 μM) [fold]	caspase 7 protein expression (Western blot) (caspase 7; MCF-7, 5 μM) [fold]	expression of Bax protein (Western blot, in words) (Bax [2])	expression of Bax (RT-PCR) (Bax [3]; MCF-7, 1.25 µM) [fold]	expression of Bax (RT-PCR) (Bax [3]; MCF-7, 2.5 µM) [fold]	expression of Bax (RT-PCR) (Bax [3]; MCF-7, 5 µM) [fold]	IC50 (HUVEC normal cells) [µM]	IC50 [4] [µM]	IC50 [5] [µM]	expression of Bcl-2 protein (Western blot, in words) (Bcl-2)
COc1cccc2c(=O)n(-c3ccc(S(=O)(=O)NCC(=O)Nc4ccc(C)cc4)cc3)c(SCC(=O)Nc3ccc(C)cc3)nc12 [Compound 4d]	6.6 ± 0.22	5.6	2.5 ± 0.2	3	3.3	3.9	markedly increased	1.7	2	2.4	7.8 ± 0.6	9 ± 0.3	6.87 ± 0.62	downregulated in a dose-dependent manner
CCc1cccc(NC(=O)CNS(=O)(=O)c2ccc(-n3c(SCC(=O)Nc4cccc(CC)c4)nc4c(OC)cccc4c3=O)cc2)c1 [Compound 4f, N-(3-ethylphenyl)-2-((3-(4-(N-(2-((3-ethylphenyl)amino)-2-oxoethyl)sulfamoyl)-phe-nyl)-8-methoxy-4-oxo-3,4-dihydroquinazolin-2yl)thio)acetamide]		10.1 ± 0.24	5 ± 0.24	1.14	1.2	1.5	markedly increased	1.2	1.4	1.6	17.9 ± 0.6	11.7 ± 2	9.76 ± 1.68	downregulated in a dose-dependent manner
